In US20250243196A1, “CITRON KINASE INHIBITORS” (The Cleveland Clinic Foundation, priority 2021, published 2025):
pIC50: −log10 of the molar value.

Molecular target: Citron kinase (Homo sapiens (Human), UniProt O14578)
Assay: Radiometric citron kinase assay (Eurofins Cat #16-040KP)
Type: biochemical
Settings: mean of at least two independent assays; read-out: Radiometric CitK IC50
Method in brief: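 Radiometric KinaseProfiler format: test compound incubated with kinase, substrate, cofactors and radiolabelled ATP; unreacted ATP washed away and radiolabelled phosphate incorporated into substrate measured. IC50 derived from inhibition of phosphorylation. Values are means of at least two independent assays.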

Citron kinase, sequence (O14578 whole entry): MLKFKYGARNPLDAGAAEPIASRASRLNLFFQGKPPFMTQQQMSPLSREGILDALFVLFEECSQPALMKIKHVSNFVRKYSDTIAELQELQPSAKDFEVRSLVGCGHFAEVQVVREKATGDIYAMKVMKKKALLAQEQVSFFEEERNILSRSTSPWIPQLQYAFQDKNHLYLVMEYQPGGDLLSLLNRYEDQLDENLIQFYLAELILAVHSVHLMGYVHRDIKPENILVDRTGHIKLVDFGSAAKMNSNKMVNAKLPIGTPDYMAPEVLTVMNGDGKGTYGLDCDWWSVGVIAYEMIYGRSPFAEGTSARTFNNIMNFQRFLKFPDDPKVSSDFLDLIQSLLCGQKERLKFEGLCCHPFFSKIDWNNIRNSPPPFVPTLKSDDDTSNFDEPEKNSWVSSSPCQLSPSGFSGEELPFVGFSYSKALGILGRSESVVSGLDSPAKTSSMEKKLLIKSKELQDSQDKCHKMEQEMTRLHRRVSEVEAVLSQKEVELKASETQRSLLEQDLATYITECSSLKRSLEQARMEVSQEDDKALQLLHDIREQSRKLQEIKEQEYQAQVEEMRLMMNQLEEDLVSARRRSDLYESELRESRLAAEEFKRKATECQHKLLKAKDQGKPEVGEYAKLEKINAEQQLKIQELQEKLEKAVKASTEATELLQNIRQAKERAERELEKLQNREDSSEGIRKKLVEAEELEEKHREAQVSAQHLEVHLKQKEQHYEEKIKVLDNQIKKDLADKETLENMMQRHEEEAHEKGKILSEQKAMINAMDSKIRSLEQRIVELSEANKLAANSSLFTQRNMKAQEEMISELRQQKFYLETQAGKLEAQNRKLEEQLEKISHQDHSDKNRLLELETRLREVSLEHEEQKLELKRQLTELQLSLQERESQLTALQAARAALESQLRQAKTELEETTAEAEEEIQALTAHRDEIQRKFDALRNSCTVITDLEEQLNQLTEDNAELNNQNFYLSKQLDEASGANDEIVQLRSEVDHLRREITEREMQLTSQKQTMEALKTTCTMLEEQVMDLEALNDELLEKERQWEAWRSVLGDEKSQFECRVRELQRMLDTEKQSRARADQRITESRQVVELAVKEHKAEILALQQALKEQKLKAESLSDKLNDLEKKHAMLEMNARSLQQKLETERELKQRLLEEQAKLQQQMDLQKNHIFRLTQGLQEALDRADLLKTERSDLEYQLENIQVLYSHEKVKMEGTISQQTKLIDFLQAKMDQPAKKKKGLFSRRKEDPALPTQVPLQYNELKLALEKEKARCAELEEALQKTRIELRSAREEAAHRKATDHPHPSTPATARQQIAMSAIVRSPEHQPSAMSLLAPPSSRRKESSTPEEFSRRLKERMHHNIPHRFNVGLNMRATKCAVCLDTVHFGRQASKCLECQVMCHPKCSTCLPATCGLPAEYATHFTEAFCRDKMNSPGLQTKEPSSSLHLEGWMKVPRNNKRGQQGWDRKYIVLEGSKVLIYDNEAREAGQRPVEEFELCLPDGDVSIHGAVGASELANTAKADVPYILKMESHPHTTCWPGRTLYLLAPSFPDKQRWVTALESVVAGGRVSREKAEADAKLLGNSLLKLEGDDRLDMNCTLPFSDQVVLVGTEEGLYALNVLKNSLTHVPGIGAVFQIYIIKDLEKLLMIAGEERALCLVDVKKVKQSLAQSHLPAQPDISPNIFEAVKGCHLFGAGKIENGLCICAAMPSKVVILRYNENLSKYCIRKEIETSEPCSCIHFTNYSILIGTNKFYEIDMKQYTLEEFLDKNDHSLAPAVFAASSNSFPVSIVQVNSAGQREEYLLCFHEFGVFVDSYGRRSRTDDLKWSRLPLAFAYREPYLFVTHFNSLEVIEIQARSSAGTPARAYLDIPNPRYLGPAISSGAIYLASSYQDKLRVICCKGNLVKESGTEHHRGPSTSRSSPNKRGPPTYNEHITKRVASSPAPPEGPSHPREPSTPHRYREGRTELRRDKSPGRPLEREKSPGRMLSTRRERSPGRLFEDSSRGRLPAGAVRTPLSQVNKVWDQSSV

Row | SMILES | pIC50
1 | Cc1cc2c(-c3ccc(NC(=O)[C@H](N)CC(C)(C)C)cc3)ccnc2[nH]1 [Compound F-52, (2R)-2-Amino-4,4-dimethyl-N-[4-(2-methyl-1H-pyrrolo[2,3-b]pyridin-4-yl)phenyl]pentanamide] | 8.04
2 | CC(C)C[C@@H](N)C(=O)Nc1ccc(-c2ccnc3[nH]ccc23)cc1C(F)(F)F [Compound F-76, (2R)-2-Amino-4-methyl-N-[4-(1H-pyrrolo[2,3-b]pyridin-4-yl)-2-(trifluoromethyl)phenyl]pentanamide] | 6.50
3 | CCc1cc(NC(=O)[C@H](N)C(C)(C)C)ccc1-c1ccnc2[nH]c(C)cc12 [Compound F-93, (2R)-2-Amino-N-[3-ethyl-4-(2-methyl-1H-pyrrolo[2,3-b]pyridin-4-yl)phenyl]-3,3-dimethyl-butanamide] | 6.92
4 | CC(C)(C)[C@@H](N)C(=O)Nc1ccc(-c2ccnc3[nH]c(C4CC4)cc23)cc1 [Compound F-54, (2R)-2-Amino-N-[4-(2-cyclopropyl-1H-pyrrolo[2,3-b]pyridin-4-yl)phenyl]-3,3-dimethyl-butanamide] | 7.45
5 | Cc1cc(NC(=O)[C@H](N)CC(C)C)ccc1-c1ccnc2[nH]c(C(F)F)cc12 [Compound F-101, (2R)-2-Amino-N-[4-[2-(difluoromethyl)-1H-pyrrolo[2,3-b]pyridin-4-yl]-3-methyl-phenyl]-4-methyl-pentanamide] | 7.74
6 | CCN[C@H](CC(C)C)C(=O)Nc1ccc(-c2ccnc3[nH]ccc23)cc1 [Compound F-43, (2R)-2-(Ethylamino)-4-methyl-N-[4-(1H-pyrrolo[2,3-b]pyridin-4-yl)phenyl]pentanamide] | 6.68
7 | CNCC(=O)Nc1ccc(-c2ccnc3[nH]ccc23)cc1 [Compound F-2, N-(4-(1H-pyrrolo[2,3-b]pyridin-4-yl)phenyl)-2-(methylamino)acetamide] | 6.14
8 | Cc1cc2c(-c3ccc(NC(=O)[C@H](N)C(C)(C)C)cc3C)ccnc2[nH]1 [Compound F-91, (2R)-2-Amino-3,3-dimethyl-N-[3-methyl-4-(2-methyl-1H-pyrrolo[2,3-b]pyridin-4-yl)phenyl]butanamide] | 7.31
9 | CC[C@@H](C)[C@@H](N)C(=O)Nc1ccc(-c2ccnc3[nH]ccc23)cc1 [Compound F-11, (2R,3R)-2-Amino-3-methyl-N-[4-(1H-pyrrolo[2,3-b]pyridin-4-yl)phenyl]pentanamide] | 6.50
10 | CN[C@H](CC(C)C)C(=O)Nc1ccc(-c2ccnc3[nH]c(C)cc23)cc1 [Compound F-94, (2R)-4-Methyl-2-(methylamino)-N-[4-(2-methyl-1H-pyrrolo[2,3-b]pyridin-4-yl)phenyl]pentanamide] | 7.36
11 | CC(C)C[C@@H](N)C(=O)Nc1ccc(-c2ccnc3[nH]ccc23)c(OC(F)F)c1 [Compound F-82, (R)-2-Amino-N-(3-(difluoromethoxy)-4-(1H-pyrrolo[2,3-b]pyridin-4-yl)phenyl)-4-methylpentanamide] | 7.67
12 | Cc1cc2c(-c3ccc(NC(=O)[C@H](N)CC(C)C)nc3C)ccnc2[nH]1 [Compound F-95, (2R)-2-Amino-4-methyl-N-[6-methyl-5-(2-methyl-1H-pyrrolo[2,3-b]pyridin-4-yl)-2-pyridyl]pentanamide] | 6.62
13 | Cc1cc2c(-c3csc(NC(=O)[C@H](N)C(C)C)n3)ccnc2[nH]1 [Compound F-114, (2R)-2-Amino-3-methyl-N-[4-(2-methyl-1H-pyrrolo[2,3-b]pyridin-4-yl)thiazol-2-yl]butanamide] | 6.61
14 | Cc1c(-c2ccnc3[nH]ccc23)ccc(NC(=O)[C@H](N)CC(C)C)c1F [Compound F-72, (2R)-2-Amino-N-[2-fluoro-3-methyl-4-(1H-pyrrolo[2,3-b]pyridin-4-yl)phenyl]-4-methyl-pentanamide] | 7.77
15 | CC(C)(C)C[C@@H](N)C(=O)Nc1ccc(-c2ccnc3[nH]c(C(F)(F)F)cc23)nc1 [Compound F-104, (2R)-2-Amino-4,4-dimethyl-N-[6-[2-(trifluoromethyl)-1H-pyrrolo[2,3-b]pyridin-4-yl]-3-pyridyl]pentanamide] | 6.38
16 | CC(C)(O)[C@@H](N)C(=O)Nc1ccc(-c2ccnc3[nH]ccc23)cc1 [Compound F-31, (2R)-2-Amino-3-hydroxy-3-methyl-N-[4-(1H-pyrrolo[2,3-b]pyridin-4-yl)phenyl]butanamide] | 7.28
17 | Cc1cc(NC(=O)[C@H](N)CC(C)(C)C)ccc1-c1ccnc2[nH]c(C(F)F)cc12 [Compound F-102, (2R)-2-Amino-N-[4-[2-(difluoromethyl)-1H-pyrrolo[2,3-b]pyridin-4-yl]-3-methyl-phenyl]-4,4-dimethyl-pentanamide] | 7.93
18 | Cc1cc(-c2ccnc3[nH]ccc23)ccc1NC(=O)[C@H](N)Cc1ccccc1 [Compound F-132, (2R)-2-Amino-N-[2-methyl-4-(1H-pyrrolo[2,3-b]pyridin-4-yl)phenyl]-3-phenyl-propanamide] | 6.63
19 | Cc1cc(NC(=O)[C@H](N)C(C)(C)C)ccc1-c1ccnc2[nH]c(C(F)F)cc12 [Compound F-103, (2R)-2-Amino-N-[4-[2-(difluoromethyl)-1H-pyrrolo[2,3-b]pyridin-4-yl]-3-methyl-phenyl]-3,3-dimethyl-butanamide] | 7.17

Continued, values first:

Row | pIC50 | SMILES
20 | 7.30 | COc1cc(NC(=O)[C@H](N)CC(C)(C)C)ccc1-c1ccnc2[nH]c(C)cc12 [Compound F-167, (2R)-2-Amino-N-[3-methoxy-4-(2-methyl-1H-pyrrolo[2,3-b]pyridin-4-yl)phenyl]-4,4-dimethyl-pentanamide]
21 | 7.42 | COc1nc(-c2ccnc3[nH]c(C(F)(F)F)cc23)ccc1NC(=O)[C@H](N)CC(C)(C)C [Compound F-149, (2R)-2-Amino-N-[2-methoxy-6-[2-(trifluoromethyl)-1H-pyrrolo[2,3-b]pyridin-4-yl]-3-pyridyl]-4,4-dimethyl-pentanamide]
22 | 7.04 | Cc1cc2c(-c3ccc(NC(=O)[C@H](N)CC(C)(C)C)nc3C)ccnc2[nH]1 [Compound F-151, (2R)-2-Amino-4,4-dimethyl-N-[6-methyl-5-(2-methyl-1H-pyrrolo[2,3-b]pyridin-4-yl)-2-pyridyl]pentanamide]
23 | 8.00 | Cc1cc2c(-c3ccc(NC(=O)[C@H](N)CC(C)(C)C)c(F)c3C)ccnc2[nH]1 [Compound F-156, (2R)-2-Amino-N-[2-fluoro-3-methyl-4-(2-methyl-1H-pyrrolo[2,3-b]pyridin-4-yl)phenyl]-4,4-dimethyl-pentanamide]
24 | 6.63 | COc1cc(-c2ccnc3[nH]c(C)cc23)ncc1NC(=O)[C@H](N)CC(C)(C)C [Compound F-171, (2R)-2-Amino-N-[4-methoxy-6-(2-methyl-1H-pyrrolo[2,3-b]pyridin-4-yl)-3-pyridyl]-4,4-dimethyl-pentanamide]
25 | 7.19 | N[C@H](Cc1ccccc1)C(=O)Nc1cccc(-c2ccnc3[nH]ccc23)c1 [Compound F-134, (2R)-2-Amino-3-phenyl-N-[3-(1H-pyrrolo[2,3-b]pyridin-4-yl)phenyl]propanamide]
26 | 7.54 | Cc1cc2c(-c3ccc(NC(=O)C(N)C(O)C(C)(C)C)cc3C)ccnc2[nH]1 (stereo not shown) [Compound F-160, 2-Amino-3-hydroxy-4,4-dimethyl-N-[3-methyl-4-(2-methyl-1H-pyrrolo[2,3-b]pyridin-4-yl)phenyl]pentanamide]
27 | 6.28 | COc1cccc(C[C@@H](N)C(=O)Nc2ccc(-c3ccnc4[nH]c(C)cc34)c(C)c2)c1 [Compound F-157, (2R)-2-Amino-3-(3-methoxyphenyl)-N-[3-methyl-4-(2-methyl-1H-pyrrolo[2,3-b]pyridin-4-yl)phenyl]propenamide]
28 | 8.00 | CC(C)(C)C[C@@H](N)C(=O)Nc1ccc(-c2ccnc3[nH]c(C4CC4)cc23)cc1 [Compound F-141, (2R)-2-Amino-N-[4-(2-cyclopropyl-1H-pyrrolo[2,3-b]pyridin-4-yl)phenyl]-4,4-dimethyl-pentanamide]
29 | 7.46 | COc1nc(NC(=O)[C@H](N)CC(C)(C)C)ccc1-c1ccnc2[nH]c(C)cc12 [Compound F-153, (2R)-2-Amino-N-[6-methoxy-5-(2-methyl-1H-pyrrolo[2,3-b]pyridin-4-yl)-2-pyridyl]-4,4-dimethyl-pentanamide]
30 | 6.07 | Cc1cc2c(-c3ccc(NC(=O)[C@@H](N)C(C)(C)O)cc3C)ccnc2[nH]1 [Compound F-159, (2S)-2-Amino-3-hydroxy-3-methyl-N-[3-methyl-4-(2-methyl-1H-pyrrolo[2,3-b]pyridin-4-yl)phenyl]butanamide]
31 | 6.51 | CC(C)(C)C[C@@H](N)C(=O)Nc1ccc(-c2ccnc3[nH]c(C(F)(F)F)cc23)cn1 [Compound F-146, (2R)-2-Amino-4,4-dimethyl-N-[5-[2-(trifluoromethyl)-1H-pyrrolo[2,3-b]pyridin-4-yl]-2-pyridyl]pentanamide]
32 | 6.50 | Cc1cc2c(-c3ccc(NC(=O)[C@H](N)C(C)(C)O)cc3OC(F)F)ccnc2[nH]1 [Compound F-170, (2R)-2-Amino-N-[3-(difluoromethoxy)-4-(2-methyl-1H-pyrrolo[2,3-b]pyridin-4-yl)phenyl]-3-hydroxy-3-methyl-butanamide]
33 | 5.82 | COc1cc(NC(=O)[C@H](N)C(C)(C)O)ccc1-c1ccnc2[nH]c(C)cc12 [Compound F-168, (2R)-2-Amino-3-hydroxy-N-[3-methoxy-4-(2-methyl-1H-pyrrolo[2,3-b]pyridin-4-yl)phenyl]-3-methyl-butanamide]
34 | 5.90 | CCc1c[nH]c2nccc(-c3ccc(NC(=O)[C@H](N)Cc4ccccc4)cc3)c12 [Compound F-136, (2R)-2-Amino-N-[4-(3-ethyl-1H-pyrrolo[2,3-b]pyridin-4-yl)phenyl]-3-phenyl-propanamide]
